These results are taken from patent US20260022142A1, “MACROCYCLIC IMMUNOMODULATORS” (Bristol-Myers Squibb Company, priority 2022, published 2026).

Bridge positions count the residues as written; N and C are the ends. Square brackets hold non-standard residues; d marks the D form. Peptide text beside a SMILES is read from it. * marks the point of attachment. Bip = N[C@@H](Cc1ccc(-c2ccccc2)cc1)C(=O)O; Phe(3-Me) = Cc1cccc(C[C@H](N)C(=O)O)c1; Cha = N[C@@H](CC1CCCCC1)C(=O)O; Carboxymethyl = O=C(O)C*; Orn = NCCC[C@H](N)C(=O)O; Aun = NCCCCCCCCCCC(=O)O; Dab = NCC[C@H](N)C(=O)O; Dap = NC[C@H](N)C(=O)O; AEEA = NCCOCCOCC(=O)O

Usually IC50 stands for the concentration that gives 50% inhibition.

For this experiment, the target named is T1, PD-1/PD-L1 interaction (PE-labeled human PD-L1-Ig binding to Jurkat cell line over-expressing human PD-1) (Homo sapiens, UniProt Q15116).
T1 construct: expressed in transfected cells; host or cells: Jurkat
T1 sequence (Q15116 25-288): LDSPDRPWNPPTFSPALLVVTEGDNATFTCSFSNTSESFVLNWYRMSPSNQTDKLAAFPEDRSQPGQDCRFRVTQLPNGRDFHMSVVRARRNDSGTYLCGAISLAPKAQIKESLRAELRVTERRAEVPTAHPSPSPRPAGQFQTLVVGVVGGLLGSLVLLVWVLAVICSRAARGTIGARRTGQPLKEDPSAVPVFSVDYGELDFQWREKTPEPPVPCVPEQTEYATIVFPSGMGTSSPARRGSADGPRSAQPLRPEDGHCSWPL
Briefly: Jurkat-PD-1 Cell Binding High-Content Screening Assay (CBA). In kind it is cell-based. To be noted: Jurkat cell line over-expressing human PD-1; PE-labeled PD-L1-Ig 20 nM final; read-out: Jurkat hPD1-PDL1 IC50. A digest of the protocol: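 Read-out is high-content imaging of cell-bound phycoerythrin-tagged PD-L1-Ig on fixed, Hoechst-counterstained Jurkat cells that over-express human PD-1. Compound exposure lasts 2 h at 37° C before the labeled ligand (20 nM final) is added for a further hour.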
For `CC(C)C[C@H]1NC(=O)[C@H](CCCN)NC(=O)[C@H](C(C)C)NC(=O)[C@H](Cc2ccc(-c3ccccc3)cc2)NC(=O)[C@H](C(C)C)NC(=O)[C@H](Cc2c[nH]c3ccccc23)NC(=O)[C@H](CC(=O)O)NC(=O)[C@H](Cc2ccc(OCC(=O)O)cc2)NC(=O)[C@H](Cc2ccc(OCC(=O)O)cc2)NC(=O)CSC[C@@H](C(=O)NCCOCCOCC(=O)NCCCCCCCCCCC(=O)O)NC(=O)[C@H](CCCNC(=N)N)NC(=O)[C@H](C(C)C)NC(=O)[C@H](CC2CCCCC2)NC(=O)[C@H](CCN)NC1=O` [Compound 2564] ({CH2CO}-Y(Carboxymethyl)Y(Carboxymethyl)DWV[Bip]V[Orn][dL][Dab][Cha]VRC[AEEA][Aun]-OH; thioether N-14), the IC50 came to 10 nM.

For the compound `CC(C)C[C@H]1NC(=O)[C@H](CCCN)NC(=O)[C@H](C(C)C)NC(=O)[C@H](Cc2ccc(-c3ccccc3)cc2)NC(=O)[C@H](C(C)C)NC(=O)[C@H](Cc2c[nH]c3ccccc23)NC(=O)[C@H](CC(=O)O)NC(=O)[C@H](Cc2ccc(OCC(=O)O)cc2)NC(=O)[C@H](CN)NC(=O)CSC[C@@H](C(=O)NCCOCCOCC(=O)NCCCCCCCCCCC(=O)O)NC(=O)[C@H](CCCCN)NC(=O)[C@H](C(C)C)NC(=O)[C@H](CC2CCCCC2)NC(=O)[C@H](CCN)NC1=O` [Compound 2565] ({CH2CO}-[Dap]Y(Carboxymethyl)DWV[Bip]V[Orn][dL][Dab][Cha]VKC[AEEA][Aun]-OH; thioether N-14), the IC50 came to 5.4 nM.

As to `Cc1cccc(C[C@@H]2NC(=O)[C@H](CC(=O)O)NC(=O)[C@H](Cc3ccc(OCC(=O)O)cc3)NC(=O)[C@H](CN)NC(=O)CSC[C@@H](C(=O)NCCOCCOCC(=O)NCCCCCCCCCCC(=O)O)NC(=O)[C@H](CN)NC(=O)[C@H](C(C)C)NC(=O)[C@H](CC3CCCCC3)NC(=O)[C@H](CCN)NC(=O)[C@@H](CC(C)C)NC(=O)[C@H](CCCN)NC(=O)[C@H](C(C)C)NC(=O)[C@H](Cc3ccc(-c4ccccc4)cc3)NC(=O)[C@H](C(C)C)NC2=O)c1` [Compound 2566] ({CH2CO}-[Dap]Y(Carboxymethyl)D[Phe(3-Me)]V[Bip]V[Orn][dL][Dab][Cha]V[Dap]C[AEEA][Aun]-OH; thioether N-14), the IC50 came to 9.4 nM.

Take `Cc1cccc(C[C@@H]2NC(=O)[C@H](CC(=O)O)NC(=O)[C@H](Cc3ccc(OCC(=O)O)cc3)NC(=O)[C@H](CN)NC(=O)CSC[C@@H](C(=O)NCCOCCOCC(=O)NCCCCCCCCCCC(=O)O)NC(=O)[C@H](CCCN)NC(=O)[C@H](C(C)C)NC(=O)[C@H](CC3CCCCC3)NC(=O)[C@H](CCN)NC(=O)[C@@H](CC(C)C)NC(=O)[C@H](CCCN)NC(=O)[C@H](C(C)C)NC(=O)[C@H](Cc3ccc(-c4ccccc4)cc3)NC(=O)[C@H](C(C)C)NC2=O)c1` [Compound 2567] ({CH2CO}-[Dap]Y(Carboxymethyl)D[Phe(3-Me)]V[Bip]V[Orn][dL][Dab][Cha]V[Orn]C[AEEA][Aun]-OH; thioether N-14): the IC50 worked out at 5.3 nM.

With `Cc1cccc(C[C@@H]2NC(=O)[C@H](CC(=O)O)NC(=O)[C@H](Cc3ccc(OCC(=O)O)cc3)NC(=O)[C@H](CN)NC(=O)CSC[C@@H](C(=O)NCCOCCOCC(=O)NCCCCCCCCCCC(=O)O)NC(=O)[C@H](CCCNC(=N)N)NC(=O)[C@H](C(C)C)NC(=O)[C@H](CC3CCCCC3)NC(=O)[C@H](CCN)NC(=O)[C@@H](CC(C)C)NC(=O)[C@H](CCCN)NC(=O)[C@H](C(C)C)NC(=O)[C@H](Cc3ccc(-c4ccccc4)cc3)NC(=O)[C@H](C(C)C)NC2=O)c1` [Compound 2568] ({CH2CO}-[Dap]Y(Carboxymethyl)D[Phe(3-Me)]V[Bip]V[Orn][dL][Dab][Cha]VRC[AEEA][Aun]-OH; thioether N-14), the IC50 was found to be 12.7 nM.
